Laboratory results taken from ChEMBL document CHEMBL1142498 (J Med Chem, 2008).

Tests used:
Rattus norvegicus = species on record: Rattus norvegicus; assay: Displacement of [3H]prazosin from alpha1 adrenergic receptor in Sprague-Dawley rat cortical membrane at 1 uM
[1] = target: Sodium-dependent serotonin transporter (Homo sapiens, UniProt P31645); assay type: cell-based, JAR
Description: Inhibition of 5-HT transporter-mediated [3H]5HT uptake in human Jar cells

[2] = target: T1, 5-hydroxytryptamine receptor 1A (Homo sapiens, UniProt P08908)
T1 sequence (P08908 whole entry): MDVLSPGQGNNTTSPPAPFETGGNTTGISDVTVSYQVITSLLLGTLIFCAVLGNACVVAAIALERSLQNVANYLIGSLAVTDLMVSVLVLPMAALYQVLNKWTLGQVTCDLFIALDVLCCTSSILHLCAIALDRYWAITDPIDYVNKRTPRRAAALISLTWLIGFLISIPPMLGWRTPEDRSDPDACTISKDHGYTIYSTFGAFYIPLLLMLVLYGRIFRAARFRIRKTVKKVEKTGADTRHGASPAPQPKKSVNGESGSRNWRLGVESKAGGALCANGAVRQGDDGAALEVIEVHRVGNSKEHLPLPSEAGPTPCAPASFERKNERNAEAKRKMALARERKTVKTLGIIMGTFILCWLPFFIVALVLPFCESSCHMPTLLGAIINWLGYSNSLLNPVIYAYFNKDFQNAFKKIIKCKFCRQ
Description: Activity at human cloned 5HT1A receptor expressed in CHO cells assessed as blockade of 5-HT-stimulated [35S]GTPgammaS binding

[3] = target: Sodium-dependent serotonin transporter (Rattus norvegicus, UniProt P31652)
Sodium-dependent serotonin transporter (Rattus norvegicus, UniProt P31652), sequence (P31652 whole entry): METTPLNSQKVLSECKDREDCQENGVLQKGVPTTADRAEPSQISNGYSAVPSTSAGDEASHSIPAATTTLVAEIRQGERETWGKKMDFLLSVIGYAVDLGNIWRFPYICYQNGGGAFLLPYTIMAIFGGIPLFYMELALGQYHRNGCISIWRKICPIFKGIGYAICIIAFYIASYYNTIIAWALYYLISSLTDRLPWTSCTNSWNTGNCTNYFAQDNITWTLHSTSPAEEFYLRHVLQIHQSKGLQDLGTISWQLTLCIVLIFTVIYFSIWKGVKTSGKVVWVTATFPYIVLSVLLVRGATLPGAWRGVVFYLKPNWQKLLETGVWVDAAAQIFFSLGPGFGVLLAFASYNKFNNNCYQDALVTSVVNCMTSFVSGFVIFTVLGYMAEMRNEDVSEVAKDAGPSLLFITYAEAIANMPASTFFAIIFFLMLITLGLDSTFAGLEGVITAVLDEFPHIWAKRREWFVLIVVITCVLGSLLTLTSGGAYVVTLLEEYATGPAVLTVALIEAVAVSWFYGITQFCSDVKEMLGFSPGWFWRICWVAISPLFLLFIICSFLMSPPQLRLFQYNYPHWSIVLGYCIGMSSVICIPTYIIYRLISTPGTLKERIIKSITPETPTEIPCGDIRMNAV
Description: Displacement of [3H]paroxetine from serotonin transporter in Sprague-Dawley rat frontal cortical membrane

Sodium-dependent serotonin transporter (Homo sapiens, UniProt P31645), sequence (P31645 whole entry): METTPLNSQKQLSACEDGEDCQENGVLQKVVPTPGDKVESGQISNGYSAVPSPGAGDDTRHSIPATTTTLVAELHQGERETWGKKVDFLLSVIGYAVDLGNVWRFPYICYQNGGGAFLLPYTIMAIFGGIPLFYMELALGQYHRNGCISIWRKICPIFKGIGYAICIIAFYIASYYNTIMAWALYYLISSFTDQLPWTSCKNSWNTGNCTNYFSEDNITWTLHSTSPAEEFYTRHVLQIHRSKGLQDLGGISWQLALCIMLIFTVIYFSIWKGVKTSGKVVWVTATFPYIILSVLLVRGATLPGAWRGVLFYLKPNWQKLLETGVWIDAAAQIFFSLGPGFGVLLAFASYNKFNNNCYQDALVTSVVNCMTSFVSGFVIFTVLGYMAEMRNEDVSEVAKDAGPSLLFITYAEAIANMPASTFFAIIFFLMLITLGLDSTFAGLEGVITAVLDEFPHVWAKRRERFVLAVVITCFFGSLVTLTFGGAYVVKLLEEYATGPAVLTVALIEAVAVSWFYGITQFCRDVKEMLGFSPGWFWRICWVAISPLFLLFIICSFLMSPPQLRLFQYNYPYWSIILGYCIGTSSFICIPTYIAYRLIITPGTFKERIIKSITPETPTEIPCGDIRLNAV

## CC(CCc1c[nH]c2ccc(F)cc12)N(CC1CC1)C1COc2c(F)ccc(C(N)=O)c2C1 (single isomer, unassigned; (-)) [listing 1 of 2 here]
Rattus norvegicus
  Activity: 15%

## CCCN(CCCCn1ccc2ccc(F)cc21)C1COc2c(F)ccc(C(N)=O)c2C1 (stereo not drawn)
Rattus norvegicus
  Activity: 15%
[1]
  IC50: 776 nM

## NC(=O)c1ccc(F)c2c1CC(N(CCCc1c[nH]c3ccc(F)cc13)C1CCC1)CO2 (stereo not drawn)
Rattus norvegicus
  Activity: 16%

## NC(=O)c1cccc2c1CC(N(CCCc1c[nH]c3ccc(F)cc13)C1CCC1)CO2 (single isomer, unassigned; (-)) [listing 1 of 2 here]
[2]
  IC50: 66 nM
[1]
  IC50: 109 nM
[3]
  Ki: 5.9 nM

## NC(=O)c1ccc(F)c2c1CC(N(CCCCn1ccc3c(F)cccc31)CC1CC1)CO2 (stereo not drawn)
Rattus norvegicus
  Activity: 18%
[2]
  IC50: > 1000 nM
[1]
  IC50: > 1000 nM

## NC(=O)c1cccc2c1CC(N(CCCc1c[nH]c3ccc(F)cc13)C1CCC1)CO2 (stereo in doubt; (+)-35e) [listing 1 of 2 here]
Rattus norvegicus
  Activity: 6%

## NC(=O)c1ccc(F)c2c1C[C@@H](N(CCCc1c[nH]c3ccc(F)cc13)C1CCC1)CO2
Rattus norvegicus
  Activity: 21%

## CCCN(CCCc1c[nH]c2ccc(F)cc12)[C@H]1COc2c(F)ccc(OC)c2C1
Rattus norvegicus
  Activity: 50%
[1]
  IC50: 379 nM

## CCCN(CCCc1c[nH]c2ccc(F)cc12)[C@H]1COc2c(F)ccc(C(N)=O)c2C1
[2]
  IC50: 405 nM

## N#Cc1ccc2[nH]cc(CCCN(C3CCC3)C3COc4c(F)ccc(C(N)=O)c4C3)c2c1 (single isomer, unassigned; (-))
Rattus norvegicus
  Activity: 19%

## NC(=O)c1ccc(F)c2c1C[C@@H](N(CC1CC1)CC1CCc3[nH]c4ccc(F)cc4c3C1)CO2 (stereo in doubt; 59a) [listing 1 of 2 here]
[2]
  IC50: > 1000 nM
[1]
  IC50: > 1000 nM

## NC(=O)c1ccc(F)c2c1CC(N(CCCc1c[nH]c3c(Cl)cccc13)C1CCC1)CO2 (stereo not drawn)
Rattus norvegicus
  Activity: 29%
[2]
  IC50: > 1000 nM
[1]
  IC50: > 1000 nM

## NC(=O)c1ccc(F)c2c1C[C@@H](NCC1CCc3[nH]c4ccc(F)cc4c3C1)CO2 (stereo in doubt; 57a) [listing 1 of 2 here]
[1]
  IC50: 291 nM

## O=C(NC1CCC1)c1ccc(F)c2c1CC(N(CCCc1c[nH]c3ccc(F)cc13)C1CCC1)CO2 (stereo not drawn)
Rattus norvegicus
  Activity: 12%
[1]
  IC50: 70.6 nM
[3]
  Ki: 7.26 nM

## CCCN(CC1CCc2[nH]c3ccc(F)cc3c2C1)[C@H]1COc2c(F)ccc(C(N)=O)c2C1 (stereo in doubt; 58a)
Rattus norvegicus
  Activity: 5%

## NC(=O)c1ccc(F)c2c1C[C@@H](NCC1CCc3[nH]c4ccc(F)cc4c3C1)CO2 (stereo in doubt; 57a) [listing 2 of 2 here]
Rattus norvegicus
  Activity: 23%

## NC(=O)c1ccc(F)c2c1CC(N(CCCc1c[nH]c3ccc(Cl)cc13)C1CCC1)CO2 (stereo not drawn)
Rattus norvegicus
  Activity: 20%
[1]
  IC50: 612 nM

## NC(=O)c1ccc(F)c2c1CC(N(CCCc1c[nH]c3c(F)cc(F)cc13)C1CCC1)CO2 (single isomer, unassigned; (+)) [listing 1 of 2 here]
[2]
  IC50: > 1000 nM
[1]
  IC50: 225 nM

## COc1cccc2c1CC(N(CCCc1c[nH]c3ccc(F)cc13)C1CCC1)CO2 (stereo not drawn)
Rattus norvegicus
  Activity: 15%
[2]
  IC50: > 2000 nM

## CCCN(CCCCn1ccc2cccc(F)c21)C1COc2c(F)ccc(C(N)=O)c2C1 (stereo not drawn)
Rattus norvegicus
  Activity: 39%
[1]
  IC50: 435 nM

## CCCN(CCCc1c[nH]c2ccc(F)cc12)[C@@H]1COc2c(F)ccc(C(N)=O)c2C1
Rattus norvegicus
  Activity: 46%

## NC(=O)c1ccc(Cl)c2c1CC(N(CCCc1c[nH]c3ccc(F)cc13)C1CCC1)CO2 (single isomer, unassigned; (-))
Rattus norvegicus
  Activity: 22%

## NC(=O)c1ccc(F)c2c1CC(N(CCCc1c[nH]c3cc(F)ccc13)C1CCC1)CO2 (stereo not drawn)
Rattus norvegicus
  Activity: 30%
[1]
  IC50: 899 nM

## NC(=O)c1ccc(F)c2c1CC(N(CCCCn1ccc3cccc(F)c31)CC1CC1)CO2 (stereo not drawn)
Rattus norvegicus
  Activity: 27%
[1]
  IC50: 138 nM

## CCCN(CCCc1c[nH]c2ccc(F)cc12)[C@@H]1COc2c(F)ccc(OC)c2C1
[1]
  IC50: 452 nM

## COc1cccc2c1C[C@@H](N(CCCc1c[nH]c3ccc(F)cc13)C1CCC1)CO2
Rattus norvegicus
  Activity: 15%

## NC(=O)c1ccc(F)c2c1C[C@@H](N(CC1CC1)CC1CCc3[nH]c4ccc(F)cc4c3C1)CO2 (stereo in doubt; 59b) [listing 1 of 2 here]
Rattus norvegicus
  Activity: 22%

## CCCN(CC1CCc2[nH]c3ccc(F)cc3c2C1)[C@H]1COc2c(F)ccc(C(N)=O)c2C1 (single isomer, unassigned; (+)) [listing 1 of 2 here]
Rattus norvegicus
  Activity: 15%

## NC(=O)c1ccc(F)c2c1CC(N(CCCCn1ccc3cccc(F)c31)C1CCC1)CO2 (stereo not drawn)
Rattus norvegicus
  Activity: 14%
[2]
  IC50: > 1000 nM
[1]
  IC50: > 1000 nM

## CCCNC(=O)c1ccc(F)c2c1CC(N(CCCc1c[nH]c3ccc(F)cc13)C1CCC1)CO2 (stereo not drawn)
Rattus norvegicus
  Activity: 21%
[1]
  IC50: 32.7 nM
[3]
  Ki: 7.96 nM

## COC(=O)c1ccc(F)c2c1CC(N(CCCc1c[nH]c3ccc(F)cc13)C1CCC1)CO2 (stereo not drawn)
[1]
  IC50: 1860 nM

## NC(=O)c1ccc(F)c2c1CC(N(CCCCn1ccc3ccc(F)cc31)CC1CC1)CO2 (stereo not drawn)
[1]
  IC50: > 1000 nM
[3]
  Ki: 9.96 nM

## NC(=O)c1ccc(F)c2c1C[C@@H](N(CC1CC1)CC1CCc3[nH]c4ccc(F)cc4c3C1)CO2 (stereo in doubt; 59b) [listing 2 of 2 here]
[1]; jar
  IC50: > 1000 nM

## COc1cccc2c(CCCN(C3CCC3)C3COc4c(F)ccc(C(N)=O)c4C3)c[nH]c12 (stereo not drawn)
Rattus norvegicus
  Activity: 15%
[1]
  IC50: > 1000 nM
[3]
  Ki: > 1000 nM

## O=C(NC1CC1)c1ccc(F)c2c1CC(N(CCCc1c[nH]c3ccc(F)cc13)C1CCC1)CO2 (stereo not drawn)
Rattus norvegicus
  Activity: 12%
[1]
  IC50: 69.6 nM
[3]
  Ki: 8.05 nM

## NC(=O)c1cccc2c1CC(N(CCCc1c[nH]c3ccc(F)cc13)C1CCC1)CO2 (stereo in doubt; 35e)
[1]
  IC50: 114 nM
[3]
  Ki: 9.55 nM

## NC(=O)c1ccc(F)c2c1CC(N(CCCCn1ccc3cc(F)ccc31)CC1CC1)CO2 (stereo not drawn)
[1]
  IC50: > 1000 nM

## CCCN(CC1CCc2[nH]c3ccc(F)cc3c2C1)[C@H]1COc2c(F)ccc(C(N)=O)c2C1 (single isomer, unassigned; (+)) [listing 2 of 2 here]
[1]; jar
  IC50: > 1000 nM

## NC(=O)c1ccc(F)c2c1CC(N(CCCCn1ccc3ccc(F)cc31)C1CCC1)CO2 (stereo not drawn)
Rattus norvegicus
  Activity: 7%
[1]
  IC50: > 1000 nM

## NC(=O)c1ccc(F)c2c1CC(N(CCCc1c[nH]c3c(F)cc(F)cc13)C1CCC1)CO2 (single isomer, unassigned; (-))
[2]
  IC50: 206 nM
[1]
  IC50: 71.6 nM

## NC(=O)c1ccc(F)c2c1CC(N(CCCc1c[nH]c3c(F)cc(F)cc13)C1CCC1)CO2 (single isomer, unassigned; (+)) [listing 2 of 2 here]
Rattus norvegicus
  Activity: 5%

## CN(C)C(=O)c1ccc(F)c2c1CC(N(CCCc1c[nH]c3ccc(F)cc13)C1CCC1)CO2 (stereo not drawn)
[2]
  IC50: > 2000 nM
[1]
  IC50: 218 nM

## NC(=O)c1cccc2c1CC(N(CCCc1c[nH]c3ccc(F)cc13)C1CCC1)CO2 (stereo in doubt; (+)-35e) [listing 2 of 2 here]
[1]
  IC50: 28.3 nM

## NC(=O)c1ccc(F)c2c1C[C@@H](NCC1CCc3[nH]c4ccc(F)cc4c3C1)CO2 (stereo in doubt; 57b)
[1]
  IC50: > 1000 nM

## CC(CCc1c[nH]c2ccc(F)cc12)N(CC1CC1)C1COc2c(F)ccc(C(N)=O)c2C1 (single isomer, unassigned; (-)) [listing 2 of 2 here]
[2]
  IC50: 333 nM
[1]
  IC50: 193 nM

## CCCN(CCCCn1ccc2cc(F)ccc21)C1COc2c(F)ccc(C(N)=O)c2C1 (stereo not drawn)
[1]
  IC50: > 1000 nM

## CNC(=O)c1ccc(F)c2c1CC(N(CCCc1c[nH]c3ccc(F)cc13)C1CCC1)CO2 (stereo not drawn)
Rattus norvegicus
  Activity: 27%
[1]
  IC50: 15 nM
[3]
  Ki: 8.3 nM

## NC(=O)c1cccc2c1CC(N(CCCc1c[nH]c3ccc(F)cc13)C1CCC1)CO2 (single isomer, unassigned; (-)) [listing 2 of 2 here]
Rattus norvegicus
  Activity: 10%

## NC(=O)c1ccc(F)c2c1CC(N(CCCCn1ccc3cc(F)ccc31)C1CCC1)CO2 (stereo not drawn)
[2]
  IC50: > 1000 nM
[1]
  IC50: > 1000 nM

## N#Cc1ccc2[nH]cc(CCCN(C3CCC3)C3COc4c(F)ccc(C(N)=O)c4C3)c2c1 (single isomer, unassigned; (+))
Rattus norvegicus
  Activity: 27%

## CC(CCc1c[nH]c2ccc(F)cc12)N(CC1CC1)C1COc2c(F)ccc(C(N)=O)c2C1 (single isomer, unassigned; (+)) [listing 1 of 2 here]
[1]
  IC50: 162 nM

## CC(CCc1c[nH]c2ccc(F)cc12)N(CC1CC1)C1COc2c(F)ccc(C(N)=O)c2C1 (single isomer, unassigned; (+)) [listing 2 of 2 here]
Rattus norvegicus
  Activity: 7%

## CCCN(CCCCn1ccc2c(F)cccc21)C1COc2c(F)ccc(C(N)=O)c2C1 (stereo not drawn)
Rattus norvegicus
  Activity: 23%
[1]
  IC50: > 1000 nM

## NC(=O)c1ccc(F)c2c1CC(N(CCCCn1ccc3c(F)cccc31)C1CCC1)CO2 (stereo not drawn)
Rattus norvegicus
  Activity: 5%
[1]
  IC50: 103 nM

## CCCN(CCCc1c[nH]c2ccc(F)cc12)C1COc2c(F)ccc(C(=O)NC)c2C1 (stereo not drawn)
[1]
  IC50: 24.3 nM
[3]
  Ki: 2.4 nM

## NC(=O)c1ccc(F)c2c1C[C@@H](N(CC1CC1)CC1CCc3[nH]c4ccc(F)cc4c3C1)CO2 (stereo in doubt; 59a) [listing 2 of 2 here]
Rattus norvegicus
  Activity: 3%
